# Measured values taken from patent US20220363665A1, “QUINOLINE COMPOUNDS FOR THE TREATMENT OF AUTOIMMUNE DISEASE” (Hoffmann-La Roche Inc., priority 2019, published 2022).
# Tests used:
# Format in all cases: in vitro ADME
# [1] = Human microsome stability assay; details: 1 μM test compound, 0.5 mg/mL protein
# Experimental: The human microsomal stability assay is used for early assessment of metabolic stability of a test compound in human liver microsomes.
# Human liver microsomes (Cat. NO.: 452117, Corning, USA; Cat. NO.: H2610, Xenotech, USA) were preincubated with test compound for 10 minutes at 37° C. in 100 mM potassium phosphate buffer, pH 7.4. The reactions were initiated by adding NADPH regenerating system. The final incubation mixtures contained 1 μM test compound, 0.5 mg/mL liver microsomal protein, 1 mM MgCl2, 1 mM NADP, 1 unit/mL isocitric dehydrogenase and 6 mM isocitric acid in 100 mM potassium phosphate buffer, pH 7.4. After incubation times of 0, 3, 6, 9, 15 and 30 minutes at 37° C., 300 μL of cold ACN (including internal standard) was added to 100 μL incubation mixture to terminate the reaction. Following precipitation and centrifugation, the amount of compound remaining in the samples were determined by LC-MS/MS. Controls of no NADPH regenerating system at zero and 30 minutes were also prepared and analyzed. The results were categorized as: low (<7.0 mL/min/kg), medium (7.0˜16.2 mL/min/kg) and high (16.2-23.2 mL/min/kg).
# CYP2D6 = biological target: T1, CYP2D6 (Homo sapiens, UniProt P10635); assay: CYP inhibition assay in human liver microsome, CYP2D6; details: human, liver microsomes, probe dextromethorphan, HLM, dextromethorphan substrate, read-out: CYP inhibition % @10 uM (2D6)
# T1 construct: tissue BD-Gentest 452117; host or cells: human liver microsomes
# Experimental: (§1) This is a high throughput screening assay used for assessment of reversible inhibition of CYP2C9, CYP2D6, and CYP3A4 activity of test compounds in human liver microsome (HLM) in early discovery stage.
# (§2) 10 mM DMSO stock solutions of test compounds were diluted in DMSO to generate 2 mM intermediate stock solution. 250 nL of intermediate stock solution were transferred in duplicate into 3 separate 384 well microtitre plates (assay-ready plates). A mixture of HLM and each substrate was made up. 45 μL of HLM substrate mix was then transferred to each well of an assay ready plate and mixed. The negative (solvent) and positive controls (standard inhibitor for each CYP) were included in each assay ready plate. The assay ready plate was warmed to 37° C. in an incubator over 10 minutes. 5 μL pre-warmed NADPH regenerating system was added to each incubation well to start the reaction. Final incubation volume was 50 μL. The assay plate then was placed back in the 37° C. incubator. After 5 minutes incubation (10 minutes for CYP2D6), incubates were quenched by addition of 50 μL quench reagent containing internal standards (400 ng/mL 13C6-4′-OH-Diclofenac, 20 ng/mL D3-Dextrorphan and 20 ng/mL D4-1′OH-Midazolam in acetonitrile). The supernatants were collected for RapidFire/MS/MS analysis.
# (§3) RapidFire online solid phase extraction/sample injection system (Agilent) coupled with API4000 triple quadrupole mass spectrometer (AB Sciex) were used for sample analysis. The mobile phase composed of acetonitrile and water supplemented with 0.1% formic acid. A C4 solid phase extraction cartridge is used for sample separation. MS detection is achieved in positive ion MRM mode.
# (§4) Peak areas for substrate, metabolite and internal standard are determined using the
# (§5) RapidFire integrator software (version 3.6.12009.12296). Peak area ratios (PAR) of metabolite and internal standard (stable-labelled metabolite) are then calculated. The measurement window for each experiment is then defined:
# (§6) PAR (0% activity)=average PAR for all incubations containing concentrated inhibitor;
# (§7) Par (100% activity)=average PAR for all incubations containing no inhibitor (DMSO controls);
# (§8) % Activity (test inhibitor) =[PAR(test inhibitor)-PAR(0% activity)][PAR(100% activity)-PAR(0% activity)];
# (§9) % Inhibition (test inhibitor)=100-% Activity (test inhibitor).
# (§10) Percentage inhibition data are then reported, in duplicate, for the 3 CYP enzymes.
# CYP3A4 = biological target: T2, CYP3A4 (Homo sapiens, UniProt P08684); assay: CYP inhibition assay in human liver microsome, CYP3A4; details: human, liver microsomes, probe midazolam, HLM, midazolam substrate, read-out: CYP inhibition % @10 uM (3A4)
# T2 construct: tissue BD-Gentest 452117; host or cells: human liver microsomes
# Experimental: as §1, §2, §3, §4, §5, §6, §7, §8, §9, §10
# T1 sequence (P10635 whole entry): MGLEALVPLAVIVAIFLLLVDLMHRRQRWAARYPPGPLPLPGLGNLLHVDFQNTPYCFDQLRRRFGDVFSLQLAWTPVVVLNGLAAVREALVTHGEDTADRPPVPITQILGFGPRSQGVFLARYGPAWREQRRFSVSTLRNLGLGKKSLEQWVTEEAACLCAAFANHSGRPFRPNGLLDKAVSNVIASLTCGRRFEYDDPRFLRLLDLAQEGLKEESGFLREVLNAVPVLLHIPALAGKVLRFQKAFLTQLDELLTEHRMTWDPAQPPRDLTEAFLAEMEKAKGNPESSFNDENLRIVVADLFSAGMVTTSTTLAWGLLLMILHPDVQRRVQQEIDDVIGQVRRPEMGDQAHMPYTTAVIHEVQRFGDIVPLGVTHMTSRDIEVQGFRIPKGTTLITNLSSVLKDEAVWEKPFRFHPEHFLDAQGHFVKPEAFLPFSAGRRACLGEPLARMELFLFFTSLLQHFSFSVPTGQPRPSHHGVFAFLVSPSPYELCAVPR
# T2 sequence (P08684 whole entry): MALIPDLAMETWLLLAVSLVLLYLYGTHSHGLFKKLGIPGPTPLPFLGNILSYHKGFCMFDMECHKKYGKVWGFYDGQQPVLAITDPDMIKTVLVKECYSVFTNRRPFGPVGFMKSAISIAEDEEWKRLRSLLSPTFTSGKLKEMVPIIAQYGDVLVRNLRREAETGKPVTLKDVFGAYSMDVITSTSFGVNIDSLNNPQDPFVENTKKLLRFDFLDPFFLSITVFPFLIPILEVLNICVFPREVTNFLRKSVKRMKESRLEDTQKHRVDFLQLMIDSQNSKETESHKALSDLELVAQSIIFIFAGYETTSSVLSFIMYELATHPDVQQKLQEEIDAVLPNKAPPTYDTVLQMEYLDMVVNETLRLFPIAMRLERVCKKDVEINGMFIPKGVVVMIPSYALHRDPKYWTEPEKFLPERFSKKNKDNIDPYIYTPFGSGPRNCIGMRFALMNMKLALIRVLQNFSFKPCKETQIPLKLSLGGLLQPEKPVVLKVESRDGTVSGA
clearance in human liver microsomes [1],"inhibition at 10 min, 10 µM (CYP2D6)","inhibition at 5 min, 10 µM (CYP3A4)",SMILES
6.15 mL/min/kg,2%,-29%,"C[C@@H]1CN(c2ccc(C(F)(F)F)c3ncccc23)C[C@H](C(=O)NC2C3CCC2CNC3)O1 (stereo partly drawn) [Example 31, (2R,6R)-N-(3-azabicyclo[3.2.1]octan-8-yl)-6-methyl-4-[8-(trifluoromethyl)-5-quinolyl]morpholine-2-carboxamide]"
7.04 mL/min/kg,-1%,-2%,"C[C@@H]1CN(c2ccc(I)c3ncccc23)C[C@H](C(=O)NC2CCN(C)CC2)O1 [Example 38, (2R,6R)-4-(8-iodo-5-quinolyl)-6-methyl-N-(1-methyl-4-piperidyl)morpholine-2-carboxamide]"

# Second part, the molecule before the results:
SMILES,clearance in human liver microsomes [1],"inhibition at 10 min, 10 µM (CYP2D6)","inhibition at 5 min, 10 µM (CYP3A4)"
"C[C@@H]1CN(c2ccc(Cl)c3ncccc23)C[C@H](C(=O)NC2CCCNCC2)O1 (stereo partly drawn) [Example 25, (2R,6R)-N-(azepan-4-yl)-4-(8-chloro-5-quinolyl)-6-methyl-morpholine-2-carboxamide]",7.16 mL/min/kg,0%,2%
"C[C@@H]1CN(c2ccc(Cl)c3ncccc23)C[C@H](C(=O)NCC2CN(C)CCO2)O1 (stereo partly drawn) [Example 26, (2R,6R)-4-(8-chloro-5-quinolyl)-6-methyl-N-[(4-methylmorpholin-2-yl)methyl]morpholine-2-carboxamide]",6.15 mL/min/kg,3%,-5%
"C[C@@H]1CN(c2ccc(C(F)(F)F)c3ncccc23)C[C@H](C(=O)NC[C@@H]2C[C@@H](F)CN2)O1 [Example 27, (2R,6R)-N-[[(2S,4R)-4-fluoropyrrolidin-2-yl]methyl]-6-methyl-4-[8-(trifluoromethyl)-5-quinolyl]morpholine-2-carboxamide]",6.15 mL/min/kg,6%,-2%
